{"source": "patent US20230277669A1", "about": "“USES OF UROLITHINS” (Amazentis SA, priority 2022, published 2023)", "key": {"TIL CD8+ population": {"tested_on": "TIL CD8+ population", "assay": "Flow cytometry analysis of TIL of UA-fed mice with APTK tumors", "type": "in vivo, C57BL/6 mice", "procedure": "(FIG. 2A) Scheme of CD3+ T-cell activation and analysis for various timepoints. (FIG. 2B) Reduced effector molecule expression on in vitro treated cells (n=3 pooled from three independent experiments). Isolated T-cells were stimulated for 48 h at the presence of UA or DMSO in the indicated doses. Data are mean ± SD, *p < 0.05 by two-sided t-test. (FIG. 2C) Reduced effector molecule expression on in vitro treated cells (n=3 pooled from three independent experiments). Isolated T-cells were stimulated for 48 h at the presence of UA or DMSO in the indicated doses. Data are mean ± SD, *p < 0.05 by two-sided t-test. (FIG. 2D) Quantification of T memory stem cells (TSCM: CD44^-CD62L^+Sca1^hi) after 24 h, 48 h and 96 h post stimulation with aCD3/aCD28 stimulation beads as indicated in (A) (n=4 pooled from four independent experiments). Data are mean ± SD, statistical analysis was performed via two-sided t-test (*p < 0.05; **p < 0.01; n.s. not significant). (FIG. 2E) Mitochondrial membrane potential within naïve CD62L^+CD44^-CD8^+ T cells, with TMRM^lo representing cells with low mitochondrial membrane potential. Cells were stimulated for 48 h as depicted in (A). Data are mean ± SD, n=4; ***p <0.001 by two-sided t-test. Experiment was repeated twice in independent experiments. (FIG. 2F) Representative histogram and quantification of memory marker CD95 expression in CD62L^+CD44^-CD8^+ cells, 48 hours after in vitro stimulation. Data are mean ± SD; n=5; ****p < 0.0001 by two-sided t-test. Data depicts one of two independent experiments. (FIG. 2G) Analysis of TIL of UA-fed mice, treated as depicted in FIG. 1J. Percentage of TSCM within CD8+ (G; n=7), as well as TCF1 (H; n=7) PD1^hi,Tim3^hi and CTLA4hi (I-K, all n=6) in the TIL CD8+ population are shown. Data are mean ± SD, statistical analysis was performed via two-sided t-test (*p < 0.05; **p < 0.01;, ***p <0.001.). Data depicts one of two independent experiments. (FIG. 2H) The same experiment as FIG. 2G with TCF1 (n=7) in the TIL CD8+ population. (FIG. 2I) The same experiment as FIG. 2G with PD1^hi (n=6) in the TIL CD8+ population. (FIG. 2J) The same experiment as FIG. 2G with Tim3^hi (n=6) in the TIL CD8+ population. (FIG. 2K) The same experiment as FIG. 2G with CTLA4hi (n=6) in the TIL CD8+ population. (FIG. 2L) Flow cytometry readout of ex vivo cytokine release of previously isolated TIL upon re-stimulation with PMA/ionomycin. Data are mean ± SD with n=7 per group. Statistical analysis was performed by two-sided t-test (**p < 0.01). One out of two independent experiments are shown. (FIG. 2M) Flow cytometry readout of ex vivo cytokine release of previously isolated TIL upon re-stimulation with PMA/ionomycin. Data are mean ± SD with n=7 per group. Statistical analysis was performed by two-sided t-test (**p < 0.01). One out of two independent experiments are shown.\n(FIG. 5L) UA induces PGC-1α expression in stimulated CD8+ cells. PGC-1α MFI at 48 h upon stimulation, as assessed by intracellular staining, is shown (n=3). One of two independent experiments are shown. Data are mean ± SD, statistical analysis was performed by two-sided t-test (p**<0.01). (FIG. 5M) Mitochondrial content of TIL CD8+ cells harvested from APTK-carrying mice, fed UA or control diet as depicted in FIG. 1J. Assessed by Mitotracker Red staining. Data are mean ± SD, *p < 0.05 by two-sided t-test. (FIG. 5N) Mitophagy and subsequent PGAM5 release drive PGC-1α upregulation. PGC-1α expression of CD8+ cells derived from Pink1^-/- KO mice upon 48 h stimulation in vitro in the presence of UA or DMSO control (n=4). Data are mean ± SD, statistical analysis was performed by two-sided t-test. Depicts one of two independent experiments. (FIG. 5O) Mitophagy and subsequent PGAM5 release drive PGC-1 α upregulation. PGC-1α expression of CD8+ cells derived from PGAM5^-^/- mice upon 48 h stimulation in vitro in the presence of UA or DMSO control (n=4). Data are mean ± SD, statistical analysis was performed by two-sided t-test. […]"}, "[1]": {"tested_on": "Th1/Th17 cell infiltration", "conditions": "in vivo; cited from earlier work"}, "CD19-CAR T cells": {"tested_on": "CD19-CAR T cells", "assay": "CD19-CAR T cell generation in presence of UA", "type": "cell-based, human"}, "[2]": {"conditions": "ex vivo restimulation with PMA/ionomycin"}}, "data": [{"smiles": "O=c1oc2cc(O)ccc2c2ccc(O)cc12", "note": "[Urolithin A]", "values": [{"measurement": "mitochondrial content in TIL of APTK tumors", "setting": "TIL CD8+ population; UA or control diet", "value": "increased mitochondrial content"}, {"measurement": "CD8+CD44loCD62LhiSca1hi T cells (TSCM) in APTK-induced tumors", "setting": "TIL CD8+ population; UA-fed mice", "value": "marked increase"}, {"measurement": "TCF1 expression in tumor infiltrating CD8+ T cells", "setting": "TIL CD8+ population; UA-fed mice", "value": "increased expression"}, {"measurement": "dendritic cells (DCs), TAMs, MDSC subsets in TME", "setting": "TIL CD8+ population; UA-fed mice", "value": "no change"}, {"measurement": "exhaustion marker CTLA-4 in CD8+ T cells", "setting": "TIL CD8+ population; UA-fed mice", "value": "reduction"}, {"measurement": "exhaustion marker PD-1 in CD8+ T cells", "setting": "TIL CD8+ population; UA-fed mice", "value": "reduction"}, {"measurement": "exhaustion marker Tim3 in CD8+ T cells", "setting": "TIL CD8+ population; UA-fed mice", "value": "reduction"}, {"measurement": "IFNg induction in tumor infiltrating CD8+ T cells", "setting": "TIL CD8+ population; [2]", "value": "stronger induction"}, {"measurement": "TNFa induction in tumor infiltrating CD8+ T cells", "setting": "TIL CD8+ population; [2]", "value": "stronger induction"}, {"measurement": "Th1/Th17 cell infiltration", "setting": "[1]", "value": "blocking Th1/Th17 cell infiltration"}, {"measurement": "gene delivery into CD8+ cells", "setting": "CD19-CAR T cells", "value": "did not impair gene delivery"}, {"measurement": "markers of exhaustion", "setting": "CD19-CAR T cells; UA supplementation", "value": "not affected"}, {"measurement": "CAR expressing TSCM cells among CD8+ cells", "setting": "CD19-CAR T cells; three days post transduction, upon UA exposure", "value": "about 60%"}]}]}
